Where two headings read alike, the source gives them in different places.
Legend:
[1] = system: HCV genotype 2a (Huh7.5-J6/JFH1); assay: microbe, parasite or virus in culture; conditions: for EC50: Hepatitis C virus
Description: We previously synthesized and characterized twelve DGAT inhibitors with a different DGAT specificity. […] A922500, a commercially available DGAT-1-specific inhibitor was used as a positive control. In spite of a wealth of knowledge on an essential role of DGAT-1 in the HCV particle assembly and production, less attention has been paid to potential functions of DGATs in other steps of the viral life cycle. Therefore, we decided to examine effects of these twelve DGAT inhibitors on HCV particle production as well as RNA genome replication in parallel. For this purpose, we transfected Huh7.5 cells with in vitro-transcribed genotype 2a HCV RNAs (Huh7.5-J6/JFH1) and treated them with each DGAT inhibitor for 6 and 72 h at 10 μM. HCV genome replication as well as host GAPDH RNA levels was quantitated by a real-time RT-PCR analysis. For assessment of HCV particle production, we harvested and filtered the supernatant from Huh7.5-J6/JFH1 cells treated with DGAT inhibitors and incubated the supernatant with naïve huh7.5 cells for 72 h. Then, infectivity was measured by a real-time RT-PCR analysis.
Quantitative real-time RT-PCR analysis to measure levels of HCV RNA and GAPDH was conducted as previously described. The cDNA synthesis and reverse transcription of miR-122 were performed by using Taqman quantitative RT-PCR (qRT-PCR) analysis. Taqmanq RT-PCR components including TaqMan miR122 probe, endogenous control U6 probe, TaqMan® MicroRNA reverse transcription Kit and TaqMan® universal master mix II were purchased from Thermo Fisher Scientific (Waltham, MA, USA)
Huh7.5-J6/JFH-1 cells were seeded into 6-well plates at a density of 3 × 10^5 cells per well with DMEM containing 10% FBS. After 24 h, they are incubated with either DMSO, increasing concentrations of 10j for 3, 6, 12, 24, 48, and 72 h, or increasing concentrations of A922500 for 6, 12, 24, 48, and 72 h. Total RNAs were extracted from treated cells and virus-containing media were harvested at each time point. Naïve Huh7.5 cells were infected with these virus-containing media after concentration with centricons. Total RNAs were extracted from Huh7.5 cells infected with virus-containing media. qRT-PCR analysis was performed to measure effect of 10j on HCV replication and virus particle production.

[2] = system: HCV NS5A (Huh7.5-Bart79I, genotype 1b); assay: western blot of HCV NS5A protein in Huh7.5-Bart79I cells; format: cell-based, hepatitis C virus
Method: Due to the tight coupling of viral genome replication to its protein expression, inhibition of viral RNA genome replication leads to a subsequent reduction of viral protein expression.
(A) Dose-dependent western blot analysis of Huh7.5-J6/JFH1 cells treated with increasing concentrations of 10j for 72 h by measuring protein expression levels of HCV NS3 relative to the β-actin. Daclatasvir, an NS5A inhibitor was used as a positive control. (B) Time-dependent western blot analysis of J6/JFH1 RNA-transfected Huh7.5 cells treated with 8 μM of 10j for increasing periods of time analyzed by measuring protein expression levels of HCV NS3 relative to the β-actin. (C,D) Same experiments were performed as in (A,B) to study effects of 10j on the expression levels of the NS5A protein of Huh7.5-Bart79I cells in a dose- as well as time-dependent manners.
Western blot analysis of Huh7.5-J6/JFH1 or Bart79I cells treated with 10j was conducted as previously described. Relative amounts of HNF4α proteins were quantified by using an HNF4α mouse monoclonal antibody (M04), clone 4E2 (Abnova) with the dilution of 1:1000.

[3] = system: JFH1-NS5A-GFP cells; assay: NS5A-GFP and Oil Red O imaging in JFH1-NS5A-GFP cells; format: cell-based, hepatitis C virus; conditions: 72 h, dose-dependent
Method: Based on previous results, we noticed that EC50 values required for inhibition of the HCV genome replication by 10j were around 1–2 μM ranges (Figure 2 and Table 3). However, IC50 value required for inhibition of the enzymatic DGAT activities in vitro by 10j was reported to be higher than 5 μM (Table 2 and Figure 6E). Based on these observations, we hypothesized that inhibition of DGATs by 10j may not play a direct role in suppression of the viral genome replication. To test this hypothesis, we decided to study effects of 10j on DGAT and the viral genome replication in a simultaneous manner. […] Then, the viral NS3 protein and LDs were visualized by using an anti-NS3 antibody and BODIPY, respectively. […] Significant reduction of LD was only seen after treatment of 10j higher than 5 μM. In order to confirm this observation, we decided to utilize another HCV-positive cell—JFH1-NS5A-GFP cells—which were infected with infectious HCV genotype 2a particles with a visually tractable NS5A due to the presence of in-frame-fused GFP protein with NS5A. TGs of these cells were stained with ORO for visualization in parallel. […]
Immunofluorescence analysis of Huh7.5-J6/JFH1 or Huh7.5-JFH1-5A-GFP cells in the presence of 10j was conducted as previously described. Fluorescence were examined and captured by Nikon confocal laser scanning microscopic system. LD content was quantified using the ImageJ program.

O=C(NCc1ccco1)c1ccc2[nH]c(COc3ccc(C45CC6CC(CC(C6)C4)C5)cc3)nc2c1 [10j, 2-{[4-(adamant-1yl)phenoxy]methyl)-N-(furan-2-ylmethyl)-1H-benzo[d]imidazole-5-carboxamide]
T1/2, time required for reducing the viral RNAs by half ([1]; 8 μM, genotype 2a): 35.8 h
effect on HCV genome replication ([1]; 10 μM, 72 h (Figure 1C)): able to block both viral RNA genome replication and particle production
EC50 ([1]; 3 h, read-out: EC50 on HCV genome replication): > 10 µM
EC50 ([1]; 6 h, read-out: EC50 on HCV genome replication): > 10 µM
EC50 ([1]; 12 h, read-out: EC50 on HCV genome replication): 8.5 µM
EC50 ([1]; 24 h, read-out: EC50 on HCV genome replication): 3 µM
EC50 ([1]; 48 h, read-out: EC50 on HCV genome replication): 3.6 µM
EC50 ([1]; 72 h, read-out: EC50 on HCV genome replication): 2.7 µM
EC50 ([1]; GETYPE2A, 72 h, read-out: EC50 HCV RNA, reporter-free infectious clone): 1.6 µM
EC50 ([1]; GETYPE2A, read-out: EC50 values required for inhibition of the HCV genome replication (summary)): 1 to 2 µM
time required for reducing 50% of HCV protein expression (T1/2) ([2]; 10 μM of 10j, 8 μM (figure legend)): 37.4 h
EC50 ([2]; Hepatitis C virus, NS5A, read-out: concentration required for reducing 50% of HCV protein expression (EC50)): 4.1 µM
concentration at which reduction of NS5A-GFP expression starts [3]: 5 µM
